Experimental data taken from US5418162A, “Serotonin transporter CDNA” (Duke University, priority 1992, dated 1995).

Assays:
[1] = target: rat 5HT transporter (rSERT) (Rattus norvegicus, UniProt P31652); assay: [3H]5HT transport assay in HeLa cells transfected with BS4E-10 cDNA (rSERT); assay type: cell-based
[2] = test system: NCCc1c[nH]c2ccc(O)cc12; assay: cells, lysate or membranes; settings: other: increasing concentrations of unlabeled 5HT, Eadie-Hofstee transformation, transfected HeLa cells; pH 7.4; 37.0 °C
[3] = target: human 5HT transporter (hSERT) (Homo sapiens, UniProt P31645); assay: [3H]5HT transport assay in HeLa cells transfected with hSERT cDNA
Chain of human 5HT transporter (hSERT) (P31645 whole entry): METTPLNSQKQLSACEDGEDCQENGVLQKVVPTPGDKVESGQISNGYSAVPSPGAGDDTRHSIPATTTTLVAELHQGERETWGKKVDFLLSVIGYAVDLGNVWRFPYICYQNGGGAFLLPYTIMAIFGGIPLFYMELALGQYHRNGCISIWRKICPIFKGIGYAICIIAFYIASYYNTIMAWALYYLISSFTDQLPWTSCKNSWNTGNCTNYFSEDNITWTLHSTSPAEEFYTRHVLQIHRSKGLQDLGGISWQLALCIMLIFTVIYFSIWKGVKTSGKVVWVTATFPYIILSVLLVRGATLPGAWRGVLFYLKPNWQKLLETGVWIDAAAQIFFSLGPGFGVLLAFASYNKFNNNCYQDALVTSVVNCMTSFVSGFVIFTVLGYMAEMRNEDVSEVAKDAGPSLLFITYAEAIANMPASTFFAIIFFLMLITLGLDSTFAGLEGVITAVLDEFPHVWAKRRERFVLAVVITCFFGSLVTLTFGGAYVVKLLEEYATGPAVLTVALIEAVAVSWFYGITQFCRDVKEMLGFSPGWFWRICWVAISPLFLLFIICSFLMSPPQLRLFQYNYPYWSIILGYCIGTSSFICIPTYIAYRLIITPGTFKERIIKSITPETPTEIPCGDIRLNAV

Chain of rat 5HT transporter (rSERT) (P31652 whole entry): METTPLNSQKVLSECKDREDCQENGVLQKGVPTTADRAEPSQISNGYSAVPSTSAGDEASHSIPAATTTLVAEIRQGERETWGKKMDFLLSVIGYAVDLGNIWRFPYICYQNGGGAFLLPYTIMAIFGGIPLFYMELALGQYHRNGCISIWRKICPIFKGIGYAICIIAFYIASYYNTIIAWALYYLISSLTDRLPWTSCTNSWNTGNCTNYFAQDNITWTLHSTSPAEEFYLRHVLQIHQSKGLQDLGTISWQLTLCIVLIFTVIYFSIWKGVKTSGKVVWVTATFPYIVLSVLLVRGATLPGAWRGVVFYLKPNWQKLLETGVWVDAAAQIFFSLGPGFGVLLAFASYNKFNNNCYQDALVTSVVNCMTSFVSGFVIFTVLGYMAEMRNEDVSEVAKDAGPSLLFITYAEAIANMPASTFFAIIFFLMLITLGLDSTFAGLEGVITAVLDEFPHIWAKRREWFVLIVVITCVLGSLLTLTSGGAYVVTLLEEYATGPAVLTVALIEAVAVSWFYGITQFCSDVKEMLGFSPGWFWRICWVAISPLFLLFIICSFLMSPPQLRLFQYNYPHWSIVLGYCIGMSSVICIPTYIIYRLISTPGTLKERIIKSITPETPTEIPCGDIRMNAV

Question: Which “Vmax of 5HT transport” value ([1]; increasing concentrations of unlabeled 5HT, transfected HeLa cells) does the source give for `NCCc1c[nH]c2ccc(O)cc12` [5HT, 5-hydroxytryptamine] here?
Answer: 6.7×10^-18 mol/cell/min

Question: And the Km ([1]; read-out: Km of 5HT transport, increasing concentrations of unlabeled 5HT, transfected HeLa cells)?
Answer: 1.5 µM

Question: “human 5HT transporter (hSERT) (Homo sapiens)” was tested. Which Km [2] did it give?
Answer: 0.463 µM

Question: Which Ki [1] does the source give for `OC1(c2ccc(Cl)cc2)c2ccccc2C2=NCCN21` (stereo not drawn) [mazindol] here?
Answer: 10 µM

Question: Which “inhibition of 5HT uptake (in words)” value [3] does the source give for `COC(=O)[C@H]1[C@@H](c2ccc(I)cc2)C[C@@H]2CC[C@H]1N2C.O=C(O)C(O)C(O)C(=O)O` [RTI-55, 3β-[4-iodophenyl]tropan-2β-carboxylic acid methyl ester tartrate] here?
Answer: increased potency over cocaine

Question: How did the “inhibition of 5HT uptake (in words)” value [3] turn out when `CC(N)Cc1ccccc1` (stereo not drawn) [amphetamine] was run?
Answer: block 5HT transport at low micromolar concentrations

Question: For `NC[C@H](O)c1ccc(O)c(O)c1` [noradrenaline], which Ki [1] is on record?
Answer: > 10 µM

Question: Which results are given for `COC(=O)[C@H]1[C@@H](OC(=O)c2ccccc2)C[C@@H]2CC[C@H]1N2C` [cocaine]?
Answer: inhibition of 5HT uptake (in words) [3]: block 5HT transport at low micromolar concentrations; potency for 5HT transport inhibition compared with inhibition of the cloned NA carrier ([1]; rSERT in transfected cells vs cloned NA transporter): predictably lower potency; antagonism of 5HT transport (in words) ([1]; transfected HeLa cells): blocked 5HT transport

Question: For `NCCc1ccc(O)c(O)c1` [Dopamine, dopamine], which Ki [1] is on record?
Answer: > 10 µM

Question: With `NCCc1c[nH]cn1` [histamine] as the compound, how does the Ki [1] read?
Answer: > 10 µM
